Measurements taken from patent US20230109839A1, “THERAPEUTIC AGENT FOR TAUOPATHIES” (SUMITOMO PHARMA CO., LTD., priority 2020, published 2023).

Each compound was assayed against T1, human Nav1.1 (Homo sapiens, UniProt P35498) (assay: Amplification of Nav1.1-derived voltage-gated sodium current (Nav1.1 current), automated patch clamp (Test 1)). Settings: HEK293, concentration for evaluation 0.3 μM; HEK293 stably expressing human Nav1.1; read-out: Nav1.1 current amplification rate (%).
T1 construct: host or cells: HEK293
Assay type: cell-based
Method in brief: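 Compound-induced change in ramp-evoked sodium current peak and AUC was expressed as 100×post/pre ratio minus 100. Recordings used automated patch clamp in voltage-clamp mode on a stable human Nav1.1 HEK293 line, including only cells above 500 pA. Compounds were delivered in extracellular fluid containing 1% DMSO.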

SMILES	activation at 0.3 µM [%]
CN(c1ncc2cnn(CC(=O)N3CCc4c(-c5ccnnc5)cccc43)c2n1)C1CC1 [Example 838]	122
CN(c1cnc2cnn(CC(=O)Nc3ccc4ncncc4c3)c2n1)C1CC2(CC2)C1 [Example 848]	22
CN(c1ncc2cnn(CC(=O)Nc3cnc4cccnc4c3)c2n1)C1CCCC1 [Example 849]	57

Same assay, conditions: HEK293, concentration for evaluation 1 μM; HEK293 stably expressing human Nav1.1; read-out: Nav1.1 current amplification rate (%)

SMILES	activation at 1 µM [%]
CC1CCN(c2ncc3cnn(CC(=O)Nc4ccn5ccnc5c4)c3n2)CC1 [Example 831]	128
CC1CC=C(c2ncc3cnn(CC(=O)Nc4ccn5ccnc5c4)c3n2)CC1 (stereo not shown) [Example 832]	204
CC1CC=C(c2ncc3cnn(CC(=O)NC4=CC5N=COC5C=C4)c3n2)CC1 (stereo not shown) [Example 833]	283
O=C(Cn1ncc2cnc(N3CCC4(CCC4)C3)nc21)Nc1ccn2ccnc2c1 [Example 834]	26
Cc1cc(NC(=O)Cn2ncc3cnc(N(C)C4CC4)nc32)cc2ncnn12 [Example 836]	19
Cc1cc(NC(=O)Cn2ncc3cnc(N(C)C4CCCC4)nc32)cc2ncnn12 [Example 837]	103
Cc1cc(NC(=O)Cn2ncc3cnc(N(C)C4CCCC4(F)F)nc32)cc2ncnn12 (stereo not shown) [Example 839]	143
CN(CC1CCC1)c1ncc2cnn(CC(=O)Nc3ccc(C#N)nc3)c2n1 [Example 840]	164
CN(c1ncc2cnn(CC(=O)Nc3cnc4cccnc4c3)c2n1)C1CC1 [Example 841]	28
CN(c1ncc2cnn(CC(=O)Nc3cnc4cccnc4c3)c2n1)C1CC2(CC2)C1 [Example 842]	87
CC1CCN(c2ncc3cnn(CC(=O)Nc4ccc(C#N)nc4)c3n2)CC1(F)F (stereo not shown) [Example 843]	171
CN(c1ncc2cnn(CC(=O)Nc3cnc4cccnc4c3)c2n1)C1CC(C)(C)C1 [Example 844]	221
CN(c1ncc2cnn(CC(=O)Nc3ccc(C#N)nc3)c2n1)C1CC2(CC2)C1 [Example 845]	76
CN(CC1CCC1)c1ncc2cnn(CC(=O)Nc3cnc4cccnc4c3)c2n1 [Example 846]	158
CC1CCN(c2ncc3cnn(CC(=O)Nc4cnc(C#N)cn4)c3n2)CC1(F)F (stereo not shown) [Example 847]	132
CC1CCN(c2ncc3cnn(CC(=O)Nc4ccc(C#N)cn4)c3n2)CC1(F)F (stereo not shown) [Example 850]	79
CN(CC1(C)CC1)c1ncc2cnn(CC(=O)Nc3cnc4cccnc4c3)c2n1 [Example 851]	89

Same assay, conditions: HEK293, concentration for evaluation 50 μM; HEK293 stably expressing human Nav1.1; read-out: Nav1.1 current amplification rate (%)

SMILES	activation at 50 µM [%]
CC1CCN(c2ncc3cnn(CC(=O)N4CCN(c5cccnc5)CC4)c3n2)CC1 [Example 835]	118

Same assay, conditions: concentration for evaluation 1 μM; HEK293 stably expressing human Nav1.1

SMILES	Nav1.1 current amplification rate (%)
O=C(Cn1ncc2cnc(N3CCC4(CCC4)CC3)nc21)Nc1ccc2cncnc2c1 [Example 808]	226
O=C(Cn1ncc2cnc(C3=CCC(F)(F)CC3)nc21)Nc1ccc2cncnc2c1 [Example 810]	86
O=C(Cn1ncc2cnc(N3CCC4(CCC4)CC3)nc21)Nc1ccc2ncnn2c1 [Example 811]	23
O=C(Cn1ncc2cnc(C3=CCC(F)(F)CC3)nc21)Nc1ccc2ncnn2c1 [Example 812]	13
O=C(Cn1ncc2cnc(N3CCC4(CC4)C(F)(F)C3)nc21)Nc1ccc2ncnn2c1 [Example 813]	105
CN(c1ncc2cnn(CC(=O)Nc3ccc4ncnn4c3)c2n1)C1CCCC1 [Example 814]	87
CC1CCN(c2ncc3cnn(CC(=O)Nc4ccc5ncnn5c4)c3n2)CC1(F)F (stereo not shown) [Example 815]	86
O=C(Cn1ncc2cnc(N3CCC4C(C3)C4(F)F)nc21)Nc1ccc2ncnn2c1 (stereo not shown) [Example 816]	13
CN(c1ncc2cnn(CC(=O)Nc3ccc4ncnn4c3)c2n1)C1CCC1 [Example 817]	21
CN(c1ncc2cnn(CC(=O)Nc3ccc4ncnn4c3)c2n1)C1CC2(CC2)C1 [Example 820]	50
CN(CC1(C)CC1)c1ncc2cnn(CC(=O)Nc3ccc4ncnn4c3)c2n1 [Example 822]	42
N#Cc1ccc(NC(=O)Cn2ncc3cnc(N4CCC5(CC5)C(F)(F)C4)nc32)cn1 [Example 823]	226
O=C(Cn1ncc2cnc(N3CCC4(CC4)C(F)(F)C3)nc21)Nc1ccc(-n2ccnc2)nc1 [Example 824]	240
COc1ccc(NC(=O)Cn2ncc3cnc(N4CCC5(CC5)C(F)(F)C4)nc32)cn1 [Example 825]	30
O=C(Cn1ncc2cnc(N3CCC4(CC4)C(F)(F)C3)nc21)Nc1cccnc1 [Example 826]	31
N#Cc1ncc(NC(=O)Cn2ncc3cnc(N4CCC5(CC5)C(F)(F)C4)nc32)cn1 [Example 827]	29

SMILES	Nav1.1 current amplification rate (%)
N#Cc1cnc(NC(=O)Cn2ncc3cnc(N4CCC5(CC5)C(F)(F)C4)nc32)cn1 [Example 828]	108
CC(C)c1ccc(NC(=O)Cn2ncc3cnc(N4CCC5(CC5)C(F)(F)C4)nc32)cn1 [Example 829]	54
N#Cc1ccc(NC(=O)Cn2ncc3cnc(N4CCC5(CC5)C(F)(F)C4)nc32)nc1 [Example 830]	54
CC1CC=C(c2ccc3cnn(CC(=O)Nc4ccn5ncnc5c4)c3n2)CC1 (stereo not shown) [Example 852]	111
CC1CCN(c2ccc3cnn(CC(=O)Nc4ccn5ncnc5c4)c3n2)CC1 [Example 853]	82
O=C(Cn1ncc2ccc(N3CCC4(CCC4)CC3)nc21)Nc1ccn2ncnc2c1 [Example 854]	45
O=C(Cn1ncc2ccc(N3CCC4(CC3)CC4)nc21)Nc1ccn2ncnc2c1 [Example 855]	93
CC1(C)CCN(c2ccc3cnn(CC(=O)Nc4ccn5ncnc5c4)c3n2)CC1 [Example 856]	50
CC1(C)CCN(c2ccc3cnn(CC(=O)Nc4ccn5ncnc5c4)c3n2)C1 [Example 857]	18
O=C(Cn1ncc2ccc(C3=CCC(F)(F)CC3)nc21)Nc1ccn2ncnc2c1 [Example 860]	50
CC(C)CN(C)c1ccc2cnn(CC(=O)Nc3ccn4ncnc4c3)c2n1 [Example 861]	78
CN(c1ccc2cnn(CC(=O)Nc3ccn4ncnc4c3)c2n1)C1CCCC1 [Example 862]	97
O=C(Cn1ncc2ccc(N3CCC4(CC4)C(F)(F)C3)nc21)Nc1ccn2ncnc2c1 [Example 863]	49
CC1CC=C(c2ccc3cnn(CC(=O)Nc4ccn5ccnc5c4)c3n2)CC1 (stereo not shown) [Example 864]	160
O=C(Cn1ncc2ccc(-c3ccc(F)cc3F)nc21)Nc1ccn2ccnc2c1 [Example 865]	14

Same assay, conditions: concentration for evaluation 10 μM; HEK293 stably expressing human Nav1.1

SMILES	Nav1.1 current amplification rate (%)
CC1(C)CCN(c2ncc3cnn(CC(=O)Nc4ccc5cncnc5c4)c3n2)CC1 [Example 809]	64

Same assay, conditions: concentration for evaluation 50 μM; HEK293 stably expressing human Nav1.1

SMILES	Nav1.1 current amplification rate (%)
CN(c1ncc2cnn(CC(=O)Nc3ccc4ncnn4c3)c2n1)C1CC1 [Example 818]	195
CC1(C)CN(c2ccc3cnn(CC(=O)Nc4ccn5ncnc5c4)c3n2)C1 [Example 859]	39
